Experimental data: article PMC12135066, “Design and Preclinical Evaluation of Novel uPAR-Targeting Radiopeptides Modified with an Albumin-Binding Entity” (Molecular Pharmaceutics, 2025)

Tests used:
[1] = Stability of the radiopeptides in mouse blood plasma; conditions: mouse; for remaining at 1 h, 10 MBq/200 µL / remaining at 24 h, 10 MBq/200 µL: blood plasma; for remaining at 4 h, 10 MBq/200 µL: mouse blood plasma
Method: (§1) The radiopeptides (50 MBq/nmol) stabilized with L-ascorbic acid were diluted in mouse and human blood plasma and incubated at 37 °C. Aliquots were taken after 1, 4, and 24 h and analyzed using reversed-phase thin-layer chromatography (TLC) (Supporting Information).
(§2) aProduct peak expressed as percentage of the sum of integrated peak areas of the entire chromatogram relative to
(§3) the value obtained immediately after labeling (set as 100%), average ± standard deviation (SD) (n=3).
(§4) Stability of the Radiopeptides in Mouse and Human Blood Plasma
(§5) Purpose: The stability of the radiopeptides was assessed in mouse and human blood plasma as an
indication for their in vivo stability.
(§6) Methods: The radiopeptides (50 MBq/nmol) stabilized with L-ascorbic acid were diluted in mouse
(§7) blood plasma (Lot: 32321, Rockland Immunochemicals Inc., U.S.A.) or in human blood plasma
(§8) (Stiftung Blutspende SRK Aargau -Solothurn, Switzerland) at a concentration of 10 MBq/200 µL and
(§9) incubated at 37 °C over a 24 h time period. Control samples were prepared by diluting the radiopeptides
(§10) in saline at the same activity concentration. Aliquots of each dilution were taken after 1 h, 4 h, and 24 h
(§11) (2 µL, ~100 kBq) and investigated employing thin layer chromatography (TLC) methods on reversed-
(§12) phase TLC plates (MERCK Analytical Chromatography, TLC Silica gel 60 RP -18 F254s) as stationary
(§13) phase and a 3/7 (v/v) mixture of acetonitrile /citrate buffer (0.1 M, pH 5.5) as mobile phase. A dilution
(§14) of [177Lu]LuCl3/HCl 0.04 M (10 MBq/200 µL) was added on each TLC plate. The developed and dried
(§15) TLC plates were exposed to a phosphor screen (Super resolution screen PSR10450013, PerkinElmer)
(§16) for 1 min. The screen was read with a Cyclone Plus phosphor imager (PerkinElmer) and the peak
(§17) quantification was performed using OptiQuant Software (version 5.0).

[2] = Stability of the radiopeptides in human blood plasma; conditions: human; for remaining at 1 h, 10 MBq/200 µL / remaining at 24 h, 10 MBq/200 µL: blood plasma; for remaining at 4 h, 10 MBq/200 µL: human blood plasma
Method: as §1, §2, §3, §4, §5
indication for their in vivo stability.
as §6, §7, §8, §9, §10, §11, §12, §13, §14, §15, §16, §17

[3] = n-Octanol/PBS distribution coefficients (logD values); conditions: n-octanol/PBS pH 7.4, pH 7.4
Method: The radiopeptides diluted in phosphate-buffered saline (PBS) pH 7.4 (25 μL, ∼0.5 MBq, 0.01 nmol) were added to a mixture of PBS pH 7.4 (1475 μL) and n-octanol (1500 μL). The vials were vortexed vigorously for 1 min, followed by centrifugation (560 rcf, 6 min) for phase separation. Aliquots were taken from each phase and measured in a γ-counter (1480 Wizard, PerkinElmer). The distribution coefficients were calculated as the logarithmic value of the ratio of counts per minute (cpm) measured in the n-octanol phase relative to the cpm measured in the PBS phase.
Methods: The logD value of all radiopeptides was determined in a mixture of n-octanol and phosphate
buffered saline (PBS) pH 7.4 using phase separation followed by liquid-liquid extraction.
polystyrene radioimmunoassay (RIA) tubes were prepared for each radiopeptide with 1.5 mL n-octanol
and 1.475 mL PBS pH 7.4. The RIA tubes were rigorously vortexed and subsequently let to stand so
that the phase separation could take place. The radiopeptides (50 MBq/nmol) were diluted with PBS
pH 7.4 to obtain an activity concentration of 10 MBq/0.5 mL. A volume of 25 μL of these solutions
was added to each RIA tube (25 µL, ~0.5 MBq, 0.01 nmol) followed by vortexing for 1 min.
separation was achieved by centrifugation at 560 rcf for 6 min. The activity in the n-octanol and PBS
phase, respectively, was measured in a γ-counter (Wallac Wizard 1480, PerkinElmer).
coefficients were calculated as the logarithm of the ratio of counts per minute (cpm) measured in the n-
octanol phase relative to the cpm measured in the PBS pH 7.4 phase.
as described above three independent times for each radiopeptide.

[4] = Biodistribution studies in HEK-uPAR xenograft-bearing nude mice; conditions: female, CD1/nude, mouse, 5 MBq (0.5 nmol), total radioactivity, 5 MBq, 0.5 nmol, decay-corrected, average ± SD, n=3 animals; for tissue uptake at 4 h: 4 h p.i.; for tissue uptake at 24 h: 24 h p.i.
[5] = system: HEK-uPAR xenograft-bearing nude mice; experiment: as above; conditions: average ± SD, n=3 animals
[6] = Radiolytic stability of the radiopeptides in saline with L-ascorbic acid; conditions: 50 MBq/nmol in saline, 150 MBq/300 µL, L-ascorbic acid (3 mg, 20 µL) and NaOAc (0.5 M, 30 µL), HPLC, product peak relative to t=0 (100%), average ± SD, n=3
Method: The radiolytic stability of the radiopeptides (50 MBq/nmol) in saline (150 MBq/300 μL) was assessed in the absence and presence of L-ascorbic acid (3 mg added in a volume of 20 μL). After an incubation period of 1, 4, and 24 h, aliquots of the solutions were analyzed using HPLC. The integrated peak area representing the intact radiopeptide was expressed as the percentage of the sum of all peaks of the chromatogram. The final amount of intact radiopeptide was expressed as the percentage of the product peak obtained at t = 0, which was set as 100% (Supporting Information).
The radiolytic stability of [177Lu]Lu-DOTA-AE105 and the new 177Lu-labeled uPAR-targeting
radiopeptides (50 MBq/nmol) was assessed in vitro in the formulated solution . The radiopeptide s were
diluted in saline to obtain an activity concentration of 150 MBq in 300 µL in the presence of L-ascorbic
acid (3 mg, 20 µL) and NaOAc (0.5 M, 30 µL) to compensate for the acidic pH. Aliquots of the dilutions
were analyzed using HPLC after incubation periods of 1 h, 4 h and 24 h . The integrated peak area
measured for the intact radioligand peak was expressed as the percentage of the sum of the integrated
peak areas of each peak present in the chromatogram. The final amount of intact radiopeptide at t = 1 h,
4 h and 24 h was expressed by correcting the obtained percentage of the product peak to this peak
obtained at t = 0, which was set as 100%.

[7] = system: mouse serum albumin (MSA); experiment: Albumin-binding properties in mouse blood plasma (ultrafiltration assay); conditions: ultrafiltration (Amicon, 10 kDa), mouse blood plasma dilutions in PBS pH 7.4, [MSA]-to-[radiopeptide] 0.01–12500, 0.006 nmol, 37 °C 30 min, γ-counter; inverse ratio of B50, [177Lu]Lu-uPAR-01 set as 1.00; average curve of 3 experiments
Method: (§18) The relative albumin-binding affinities of the radiopeptides in mouse and human blood plasma were determined using an ultrafiltration assay with Amicon centrifugal filters (cutoff of 10 kDa; Merck Millipore), as previously reported (Supporting Information). A fixed amount of the respective radiopeptide (15 μL, ∼300 kBq, 0.006 nmol) was added to a defined volume (150 μL) of mouse and human blood plasma dilutions to obtain [mouse serum albumin (MSA)]-to-[radiopeptide] and [human serum albumin (HSA)]-to-[radiopeptide] molar concentration ratios of 0.01–12,500 and 0.01–20,000, respectively. The data were analyzed using a semilogarithmic Hill plot with the maximum binding set as 100% (GraphPad Prism software, version 8.3.1).
(§19) Determination of the Albumin-Binding Properties
(§20) Purpose: The radiopeptides were investigated with regard to their albumin-binding capabilities in vitro
(§21) as a measure to predict blood retention in vivo.
(§22) Methods: The relative albumin-binding affinity of the radiopeptides in mouse blood plasma (Rockland
(§23) Immunochemicals, Inc., U.S.A.) and human blood plasma (Stiftung Blutspende SRK Aargau-
(§24) Solothurn, Switzerland) were determined using an ultrafiltration method. The amount of mouse serum
(§25) albumin (MSA) and human serum albumin (HSA) in mouse and human blood plasma was defined as
(§26) 550 μM and 800 μM, respectively, based on measurements using a dry chemistry analyzer (DRI-CHEM
(§27) 4000i, FUJIFILM, Japan). A fixed amount of radiopeptide (50 MBq/nmol, ~300 kBq, 15 μL, 0.006
(§28) nmol) was added to a defined volume (150 μL) of mouse and human blood plasma and various dilutions
(§29) thereof in PBS pH 7.4, resulting in defined [MSA]-to-[radiopeptide] or [HSA]-to-[radiopeptide] molar
(§30) concentration ratios ranging from 0.01 ‒12500 and 0.01‒20000, respectively, followed by incubation of
(§31) the samples at 37 °C for 30 min. Ice-cold PBS (150 µL, pH 7.4) was added before loading the blood
(§32) plasma samples on Amicon centrifugal filters (cut -off of 10 kDa; Merck Millipore) followed by
(§33) centrifugation (14000 rcf, 30 min, 4 °C) to allow the separation of the plasma protein -bound from the
(§34) plasma-unbound (free) fractions of each sample. The inserts of the filter devices were inverted and centrifuged at 200 rcf for 3 min to recover the protein -bound radiopeptide. The activity in the filtrate
(§35) and filter unit was measured in a γ-counter (1480 Wizard, PerkinElmer) and the counts were combined
(§36) assuming that the fraction retained in the filter membrane was not bound to proteins. The protein -bound
(§37) fraction was expressed as percentage of the whole activity (i.e. plasma protein -bound activity, activity
(§38) measured in the filtrate and activity measured in the filter (set as 100%) ). The data were analyzed using
(§39) a semi-logarithmic plot assuming a maximum binding of 100%. The Hill equation was fitted to the data
(§40) points and the half -maximum binding ( B50) based on the average curve obtained from three independent
(§41) experiments (GraphPad Prism software, version 8.3 .1). The relative albumin-binding affinit ies of the
(§42) reference compound, whose relative binding affinity was set as 1.0. The results were presented as the
(§43) B50 value obtained from the average curve from 3 independent experiments.

[8] = system: human serum albumin (HSA); experiment: Albumin-binding properties in human blood plasma (ultrafiltration assay); conditions: ultrafiltration (Amicon, 10 kDa), human blood plasma dilutions in PBS pH 7.4, [HSA]-to-[radiopeptide] 0.01–20000, 0.006 nmol, 37 °C 30 min, γ-counter; inverse ratio of B50, [177Lu]Lu-uPAR-01 set as 1.00; average curve of 3 experiments
Method: as §18, §19, §20, §21, §22, §23, §24, §25, §26, §27, §28, §29, §30, §31, §32, §33, §34, §35, §36, §37, §38, §39, §40, §41, §42, §43

[9] = HEK-uPAR xenograft, HEK-uPAR xgft

CC(C)C[C@H](NC(=O)[C@H](Cc1ccc(O)cc1)NC(=O)[C@@H](CCCNC(=N)N)NC(=O)[C@@H](CO)NC(=O)[C@H](Cc1ccccc1)NC(=O)[C@H](CC1CCCCC1)NC(=O)[C@H](CC(=O)O)NC(=O)[C@H](CCCCNC(=O)CCCc1ccc(I)cc1)NC(=O)CN1CCN(CC(=O)O)CCN(CC(=O)O)CCN(CC(=O)O)CC1)C(=O)N[C@@H](Cc1c[nH]c2ccccc12)C(=O)N[C@@H](CO)C(N)=O [[^177Lu]Lu-uPAR-01, metal not drawn]
remaining at 1 h, 10 MBq/200 µL [1]: 100% | remaining at 24 h, 10 MBq/200 µL [1]: 99 ± 1% | remaining at 4 h, 10 MBq/200 µL [1]: 100% | remaining at 1 h, 10 MBq/200 µL [2]: 100% | remaining at 24 h, 10 MBq/200 µL [2]: 99 ± 1% | remaining at 4 h, 10 MBq/200 µL [2]: 99 ± 2% | logD [3]: 0.78 ± 0.05 | tissue uptake at 4 h [4, 9]: 9.2 ± 0.2 %ID/g | tissue uptake at 24 h [4, 9]: 5.8 ± 0.6 %ID/g | tissue uptake at 4 h ([4]; blood): 16 ± 1 %ID/g | tissue uptake at 24 h ([4]; blood): 4.5 ± 0.2 %ID/g | tissue uptake at 4 h ([4]; bone): 1.9 ± 0.1 %ID/g | tissue uptake at 24 h ([4]; bone): 0.81 ± 0.01 %ID/g | tissue uptake at 4 h ([4]; brain): 0.32 ± 0.02 %ID/g | tissue uptake at 24 h ([4]; brain): 0.1 ± 0.01 %ID/g | tissue uptake at 4 h ([4]; heart): 5.7 ± 0.2 %ID/g | tissue uptake at 24 h ([4]; heart): 1.9 ± 0.1 %ID/g | tissue uptake at 4 h ([4]; intestines): 2.3 ± 0.3 %ID/g | tissue uptake at 24 h ([4]; intestines): 0.94 ± 0.04 %ID/g | tissue uptake at 4 h ([4]; kidneys): 5.6 ± 0.2 %ID/g | tissue uptake at 24 h ([4]; kidneys): 4.2 ± 0.8 %ID/g | tissue uptake at 4 h ([4]; liver): 6.4 ± 0.3 %ID/g | tissue uptake at 24 h ([4]; liver): 1.8 ± 0.2 %ID/g | tissue uptake at 4 h ([4]; lung): 9.4 ± 1 %ID/g | tissue uptake at 24 h ([4]; lung): 3.3 ± 0.3 %ID/g | tissue uptake at 4 h ([4]; muscle): 1.4 ± 0.2 %ID/g | tissue uptake at 24 h ([4]; muscle): 0.57 ± 0.07 %ID/g | tissue uptake at 4 h ([4]; pancreas): 2 ± 0.3 %ID/g | tissue uptake at 24 h ([4]; pancreas): 0.77 ± 0.04 %ID/g | tissue uptake at 4 h ([4]; salivary glands): 3.6 ± 0.3 %ID/g | tissue uptake at 24 h ([4]; salivary glands): 1.5 ± 0.1 %ID/g | tissue uptake at 4 h ([4]; spleen): 2.7 ± 0.1 %ID/g | tissue uptake at 24 h ([4]; spleen): 1.7 ± 0.2 %ID/g | tissue uptake at 4 h ([4]; stomach): 2 ± 0.1 %ID/g | tissue uptake at 24 h ([4]; stomach): 0.78 ± 0.08 %ID/g | Xenograft-to-blood ratio ([5]; 4 h p.i.): 0.57 ± 0.01 | Xenograft-to-kidney ratio ([5]; 4 h p.i.): 1.6 ± 0.1 | Xenograft-to-liver ratio ([5]; 4 h p.i.): 1.4 ± 0.1 | Xenograft-to-blood ratio ([5]; 24 h p.i.): 1.3 ± 0.1 | Xenograft-to-kidney ratio ([5]; 24 h p.i.): 1.4 ± 0.3 | Xenograft-to-liver ratio ([5]; 24 h p.i.): 3.3 ± 0.3 | radiolytic stability, % intact radiopeptide ([6]; 1 h): 100 ± 0% | radiolytic stability, % intact radiopeptide ([6]; 4 h): 100 ± 0% | radiolytic stability after 24 h, intact radiopeptide [%] [6]: 93 ± 4% | Relative albumin-binding affinity, mouse blood plasma [7]: 1.00 | Relative albumin-binding affinity, human blood plasma [8]: 1.00

CC(C)C[C@H](NC(=O)[C@H](Cc1ccc(O)cc1)NC(=O)[C@@H](CCCNC(=N)N)NC(=O)[C@@H](CO)NC(=O)[C@H](Cc1ccccc1)NC(=O)[C@H](CC1CCCCC1)NC(=O)[C@H](CC(=O)O)NC(=O)[C@H](CCCCNC(=O)CCCc1ccc(I)cc1)NC(=O)[C@@H](N)CCCCNC(=O)CN1CCN(CC(=O)O)CCN(CC(=O)O)CCN(CC(=O)O)CC1)C(=O)N[C@@H](Cc1c[nH]c2ccccc12)C(=O)N[C@@H](CO)C(N)=O [[^177Lu]Lu-uPAR-04, metal not drawn]
remaining at 1 h, 10 MBq/200 µL [1]: 101 ± 2% | remaining at 24 h, 10 MBq/200 µL [1]: 98% | remaining at 4 h, 10 MBq/200 µL [1]: 99 ± 3% | remaining at 1 h, 10 MBq/200 µL [2]: 101 ± 3% | remaining at 24 h, 10 MBq/200 µL [2]: 90 ± 5% | remaining at 4 h, 10 MBq/200 µL [2]: 98 ± 2% | logD [3]: -0.29 | tissue uptake at 4 h [4, 9]: 3.6 ± 0.2 %ID/g | tissue uptake at 24 h [4, 9]: 4.3 ± 1.2 %ID/g | tissue uptake at 4 h ([4]; blood): 13 ± 1 %ID/g | tissue uptake at 24 h ([4]; blood): 7 ± 0.9 %ID/g | tissue uptake at 4 h ([4]; bone): 1.2 ± 0.1 %ID/g | tissue uptake at 24 h ([4]; bone): 0.85 ± 0.04 %ID/g | tissue uptake at 4 h ([4]; brain): 0.26 ± 0.02 %ID/g | tissue uptake at 24 h ([4]; brain): 0.14 ± 0.01 %ID/g | tissue uptake at 4 h ([4]; heart): 4.4 ± 0.6 %ID/g | tissue uptake at 24 h ([4]; heart): 3 ± 0.3 %ID/g | tissue uptake at 4 h ([4]; intestines): 1.6 ± 0.1 %ID/g | tissue uptake at 24 h ([4]; intestines): 0.99 ± 0.21 %ID/g | tissue uptake at 4 h ([4]; kidneys): 5.9 ± 0.4 %ID/g | tissue uptake at 24 h ([4]; kidneys): 5.9 ± 1.2 %ID/g | tissue uptake at 4 h ([4]; liver): 3.9 ± 0.3 %ID/g | tissue uptake at 24 h ([4]; liver): 3.1 ± 0.4 %ID/g | tissue uptake at 4 h ([4]; lung): 6.2 ± 0.7 %ID/g | tissue uptake at 24 h ([4]; lung): 4.3 ± 0.5 %ID/g | tissue uptake at 4 h ([4]; muscle): 1 ± 0.1 %ID/g | tissue uptake at 24 h ([4]; muscle): 0.73 ± 0.04 %ID/g | tissue uptake at 4 h ([4]; pancreas): 1.5 ± 0.1 %ID/g | tissue uptake at 24 h ([4]; pancreas): 1 ± 0.1 %ID/g | tissue uptake at 4 h ([4]; salivary glands): 2.8 ± 0.2 %ID/g | tissue uptake at 24 h ([4]; salivary glands): 2.4 ± 0.4 %ID/g | tissue uptake at 4 h ([4]; spleen): 1.9 ± 0.1 %ID/g | tissue uptake at 24 h ([4]; spleen): 2.3 ± 0.3 %ID/g | tissue uptake at 4 h ([4]; stomach): 1.5 ± 0.1 %ID/g | tissue uptake at 24 h ([4]; stomach): 1 ± 0.1 %ID/g | Xenograft-to-blood ratio ([5]; 4 h p.i.): 0.28 ± 0.01 | Xenograft-to-kidney ratio ([5]; 4 h p.i.): 0.62 ± 0.01 | Xenograft-to-liver ratio ([5]; 4 h p.i.): 0.93 ± 0.08 | Xenograft-to-blood ratio ([5]; 24 h p.i.): 0.61 ± 0.09 | Xenograft-to-kidney ratio ([5]; 24 h p.i.): 0.73 ± 0.15 | Xenograft-to-liver ratio ([5]; 24 h p.i.): 1.4 ± 0.2 | radiolytic stability, % intact radiopeptide ([6]; 1 h): 99 ± 1% | radiolytic stability, % intact radiopeptide ([6]; 4 h): 97 ± 2% | radiolytic stability after 24 h, intact radiopeptide [%] [6]: 95 ± 2% | Relative albumin-binding affinity, mouse blood plasma [7]: 1.08 | Relative albumin-binding affinity, human blood plasma [8]: 1.07
